According to patent US20110224300A1, “USE OF POTASSIUM 2-(a- HYDROXYPENTYL) BENZOATE IN THE MANUFACTURE OF MEDICAMENTS FOR PREVENTING AND/OR TREATING SENILE [sequence]” (Institute of Mataria Medica, Chinese Academy of Me, priority 2008, published 2011):

System: corpus callosum and optic tract of 2-VO rats
Assay: Klüver-Barrera staining in 2-VO rats
Format: in vivo, rat
Settings: for improvement of pathological damage of the corpus callosum, K-B staining: 21 days, rank among doses
Protocol: Four rats in each group were anesthetized with sodium pentobarbital (100 mg/kg, intraperitoneal injection), and perfused transcardially with cold saline, followed by 300 ml of 4% paraformaldehyde in 0.01 M phosphate buffer (pH 7.4). After these procedures, the brains were removed and stored in the 0.01 M phosphate buffer (pH 7.4) with 4% paraformaldehyde and 30% sucrose at 4° C. until fully equilibrated. Then they were postfixed at 4° C., dehydrated and embedded in paraffin blocks. Coronal sections of 8 μm were stained with hematoxylin-eosin and Klüver-Barrera.
KB staining could reflect the morphological changes of neuronal myelin sheath, and the morphological changes of nerve fibers.

CCCCC(O)c1ccccc1C(=O)[O-].[K+] (racemic) [dl-PHPB, Potassium 2-(1-Hydroxypentyl)-benzoate]
improvement of pathological damage of the corpus callosum, K-B staining (dl-PHPB 13 mg/kg): the weakest
pathological changes of the optic tract, K-B staining (dl-PHPB 39 mg/kg): strong role
improvement of pathological damage of the corpus callosum, K-B staining (dl-PHPB 39 mg/kg): strongest
pathological changes of the optic tract, K-B staining (dose not specified): a certain improvement
